Measured values taken from ChEMBL document CHEMBL4270599, “Synthesis of a 3'-C-ethynyl-β-d-ribofuranose purine nucleoside library: Discovery of C7-deazapurine analogs as potent antiproliferative nucleosides” (Eur J Med Chem, 2018).

Key:
Assay type in all cases: functional
[1] = test system: UO-31; experiment: Growth inhibition of human UO31 cells assessed as cell growth at 10^-7 M incubated for 48 hrs by sulforhodamine B assay relative to control; details: UO-31, 48 h, read-out: Activity
[2] = test system: T47D; experiment: Growth inhibition of human T47D cells assessed as cell growth at 10^-8 M incubated for 48 hrs by sulforhodamine B assay relative to control; details: read-out: Activity
[3] = test system: RPMI-8226; experiment: Growth inhibition of human RPMI8226 cells assessed as cell growth at 10^-8 M incubated for 48 hrs by sulforhodamine B assay relative to control; details: RPMI-8226, 48 h, read-out: Activity
[4] = test system: OVCAR-5; experiment: Growth inhibition of human OVCAR5 cells assessed as cell growth at 10^-6 M incubated for 48 hrs by sulforhodamine B assay relative to control; details: OVCAR-5, 48 h, read-out: Activity
[5] = test system: UACC-62; experiment: Growth inhibition of human UACC62 cells assessed as cell growth at 10^-7 M incubated for 48 hrs by sulforhodamine B assay relative to control; details: UACC-62, 48 h, read-out: Activity
[6] = test system: SNB-75; experiment: Growth inhibition of human SNB75 cells assessed as cell growth at 10^-6 M incubated for 48 hrs by sulforhodamine B assay relative to control; details: SNB-75, 48 h, read-out: Activity
[7] = test system: SN12C; experiment: Growth inhibition of human SN12C cells assessed as cell growth at 10^-4 M incubated for 48 hrs by sulforhodamine B assay relative to control; details: read-out: Activity
[8] = test system: SNB-19; experiment: Growth inhibition of human SNB19 cells assessed as cell growth at 10^-5 M incubated for 48 hrs by sulforhodamine B assay relative to control; details: SNB-19, 48 h, read-out: Activity
[9] = test system: OVCAR-4; experiment: Growth inhibition of human OVCAR4 cells assessed as cell growth at 10^-5 M incubated for 48 hrs by sulforhodamine B assay relative to control; details: OVCAR-4, 48 h, read-out: Activity
[10] = test system: U-251; experiment: Growth inhibition of human U251 cells assessed as cell growth at 10^-8 M incubated for 48 hrs by sulforhodamine B assay relative to control; details: U-251, 48 h, read-out: Activity
[11] = test system: SF-268; experiment: Cytotoxicity against human SF268 cells after 48 hrs by SRB assay; details: SF-268, 48 h; for GI50: read-out: GI50; for TGI: read-out: TGI
[12] = test system: OVCAR-5; experiment: Growth inhibition of human OVCAR5 cells assessed as cell growth at 10^-7 M incubated for 48 hrs by sulforhodamine B assay relative to control; details: OVCAR-5, 48 h, read-out: Activity
[13] = test system: SK-MEL-5; experiment: Growth inhibition of human SK-MEL-5 cells assessed as cell growth at 10^-6 M incubated for 48 hrs by sulforhodamine B assay relative to control; details: SK-MEL-5, 48 h, read-out: Activity
[14] = test system: HCT-116; experiment: Growth inhibition of human HCT116 cells assessed as cell growth at 10^-7 M incubated for 48 hrs by sulforhodamine B assay relative to control; details: HCT-116, 48 h, read-out: Activity
[15] = test system: SNB-75; experiment: Cytotoxicity against human SNB75 cells after 48 hrs by SRB assay; details: SNB-75, 48 h; for GI50: read-out: GI50; for CC50: read-out: LC50 (the source's name); for TGI: read-out: TGI
[16] = test system: NCI-H322M; experiment: Growth inhibition of human NCI-H322M cells assessed as cell growth at 10^-7 M incubated for 48 hrs by sulforhodamine B assay relative to control; details: read-out: Activity
[17] = test system: SW-620; experiment: Growth inhibition of human SW620 cells assessed as cell growth at 10^-5 M incubated for 48 hrs by sulforhodamine B assay relative to control; details: SW-620, 48 h, read-out: Activity
[18] = test system: NCI-H460; experiment: Cytotoxicity against human NCI-H460 cells after 48 hrs by SRB assay; details: NCI-H460, 48 h; for GI50: read-out: GI50; for TGI: read-out: TGI
[19] = test system: SNB-19; experiment: Cytotoxicity against human SNB19 cells after 48 hrs by SRB assay; details: SNB-19, 48 h; for GI50: read-out: GI50
[20] = test system: SF-295; experiment: Growth inhibition of human SF295 cells assessed as cell growth at 10^-7 M incubated for 48 hrs by sulforhodamine B assay relative to control; details: SF-295, 48 h, read-out: Activity
[21] = test system: SK-MEL-2; experiment: Growth inhibition of human SK-MEL-2 cells assessed as cell growth at 10^-8 M incubated for 48 hrs by sulforhodamine B assay relative to control; details: SK-MEL-2, 48 h, read-out: Activity
[22] = test system: SK-MEL-28; experiment: Growth inhibition of human SK-MEL-28 cells assessed as cell growth at 10^-6 M incubated for 48 hrs by sulforhodamine B assay relative to control; details: SK-MEL-28, 48 h, read-out: Activity
[23] = test system: U-251; experiment: Growth inhibition of human U251 cells assessed as cell growth at 10^-5 M incubated for 48 hrs by sulforhodamine B assay relative to control; details: U-251, 48 h, read-out: Activity
[24] = test system: NCI/ADR-RES; experiment: Growth inhibition of human NCI/ADR-RES cells assessed as cell growth at 10^-6 M incubated for 48 hrs by sulforhodamine B assay relative to control; details: read-out: Activity
[25] = test system: MDA-MB-231; experiment: Cytotoxicity against human MDA-MB-231 cells after 48 hrs by SRB assay; details: MDA-MB-231, 48 h; for GI50: read-out: GI50; for CC50: read-out: LC50 (the source's name)
[26] = test system: SW-620; experiment: Growth inhibition of human SW620 cells assessed as cell growth at 10^-7 M incubated for 48 hrs by sulforhodamine B assay relative to control; details: SW-620, 48 h, read-out: Activity
[27] = test system: NCI-H460; experiment: Growth inhibition of human NCI-H460 cells assessed as cell growth at 10^-8 M incubated for 48 hrs by sulforhodamine B assay relative to control; details: NCI-H460, 48 h, read-out: Activity
[28] = test system: MDA-MB-435; experiment: Growth inhibition of human MDA-MB-435 cells assessed as cell growth at 10^-7 M incubated for 48 hrs by sulforhodamine B assay relative to control; details: MDA-MB-435, 48 h, read-out: Activity
[29] = test system: SK-OV-3; experiment: Growth inhibition of human SKOV3 cells assessed as cell growth at 10^-7 M incubated for 48 hrs by sulforhodamine B assay relative to control; details: SK-OV-3, 48 h, read-out: Activity
[30] = test system: PC-3; experiment: Growth inhibition of human PC3 cells assessed as cell growth at 10^-4 M incubated for 48 hrs by sulforhodamine B assay relative to control; details: PC-3, 48 h, read-out: Activity
[31] = test system: NCI-H322M; experiment: Growth inhibition of human NCI-H322M cells assessed as cell growth at 10^-5 M incubated for 48 hrs by sulforhodamine B assay relative to control; details: read-out: Activity
[32] = test system: Malme-3M; experiment: Growth inhibition of human MALME-3M cells assessed as cell growth at 10^-5 M incubated for 48 hrs by sulforhodamine B assay relative to control; details: read-out: Activity
[33] = test system: SR; experiment: Growth inhibition of human SR cells assessed as cell growth at 10^-4 M incubated for 48 hrs by sulforhodamine B assay relative to control; details: read-out: Activity
[34] = read-out: LC50 (the source's name)
[35] = read-out: pLC50 (the source's name) (converted)

C#C[C@@]1(O)[C@@H](CO)O[C@@H](n2cc(I)c3c(N)ncnc32)[C@@H]1O
growth at 0.1 µM [1]: 46 to 50% | growth at 0.01 µM [2]: 13 to 44% | growth at 0.01 µM [3]: 95 to 96% | growth at 1 µM [4]: 43 to 64% | growth at 0.1 µM [5]: 81 to 84% | growth at 1 µM [6]: 27 to 39% | growth at 100 µM [7]: 6% | growth at 10 µM [8]: 2 to 3% | growth at 10 µM [9]: 9 to 13% | growth at 0.01 µM [10]: 94 to 99% | GI50 [11]: 941 to 1280 nM | CC50 [11, 34]: > 100000 nM | TGI [11]: 32200 to 77300 nM | growth at 0.1 µM [12]: 67 to 75% | growth at 1 µM [13]: 14 to 26% | growth at 0.1 µM [14]: 22 to 34% | GI50 [15]: 373 to 559 nM | CC50 [15]: 5530 to 5920 nM | TGI [15]: 1810 to 2180 nM | growth at 0.1 µM [16]: 69 to 82% | growth at 10 µM [17]: 4% | GI50 [18]: 58.4 to 137 nM | CC50 [18, 34]: 75400 to 100000 nM | TGI [18]: 1670 to 2180 nM | GI50 [19]: 53.5 to 185 nM | CC50 [19, 34]: > 100000 nM | TGI ([19]; read-out: TGI): 25000 to 100000 nM | growth at 0.1 µM [20]: 63 to 76% | growth at 0.01 µM [21]: 84 to 101% | growth at 1 µM [22]: 62 to 78% | growth at 10 µM [23]: 4% | growth at 1 µM [24]: 4 to 7% | GI50 [25]: 168 to 204 nM | CC50 [25]: > 100000 nM | TGI ([25]; read-out: TGI): > 100000 nM | TGI ([25]; read-out: pTGI (converted)): > 100000 nM | growth at 0.1 µM [26]: 39% | growth at 0.01 µM [27]: 91 to 92% | growth at 0.1 µM [28]: 66 to 73% | growth at 0.1 µM [29]: 26 to 40%

C#C[C@@]1(O)[C@@H](CO)O[C@@H](n2cc(Br)c3c(N)ncnc32)[C@@H]1O
growth at 0.1 µM [1]: 55 to 57% | growth at 0.01 µM [2]: 64 to 81% | growth at 0.01 µM [3]: 95 to 101% | growth at 1 µM [4]: 33 to 56% | growth at 100 µM [30]: -5% | growth at 0.1 µM [5]: 56 to 84% | growth at 10 µM [31]: -12% | growth at 100 µM [7]: 1 to 5% | growth at 10 µM [8]: 1% | growth at 10 µM [9]: 7% | growth at 0.01 µM [10]: 57 to 87% | GI50 [11]: 467 to 498 nM | CC50 [11, 34]: > 100000 nM | TGI [11]: 33200 to 80600 nM | growth at 0.1 µM [12]: 62 to 97% | growth at 0.1 µM [14]: 2 to 12% | GI50 [15]: 221 to 249 nM | CC50 [15]: 1640 to 3670 nM | TGI [15]: 519 to 1070 nM | growth at 0.1 µM [16]: 73 to 76% | growth at 10 µM [17]: 4 to 5% | GI50 [18]: 17.1 to 50 nM | CC50 [18, 34]: > 100000 nM | TGI [18]: 1540 to 5270 nM | growth at 10 µM [32]: 5 to 10% | GI50 [19]: 17.4 to 211 nM | CC50 [19, 34]: > 100000 nM | TGI ([19]; read-out: TGI): 777 to 100000 nM | growth at 0.1 µM [20]: 60 to 78% | growth at 0.01 µM [21]: 96 to 106% | growth at 1 µM [22]: 61 to 68% | growth at 1 µM [24]: 6% | growth at 100 µM [33]: 2 to 6% | GI50 [25]: 56 to 215 nM | CC50 [25]: > 100000 nM | TGI ([25]; read-out: TGI): > 100000 nM | TGI ([25]; read-out: pTGI (converted)): > 100000 nM | growth at 0.1 µM [26]: 18 to 45% | growth at 0.01 µM [27]: 63 to 104% | growth at 0.1 µM [28]: 51 to 70% | growth at 0.1 µM [29]: 28 to 62%

C#C[C@@]1(O)[C@@H](CO)O[C@@H](n2cc(Cl)c3c(N)ncnc32)[C@@H]1O
growth at 0.1 µM [1]: 61 to 69% | growth at 0.01 µM [2]: 71 to 84% | growth at 0.01 µM [3]: 99 to 100% | growth at 1 µM [4]: 23 to 38% | growth at 0.1 µM [5]: 75 to 81% | growth at 100 µM [7]: 1% | growth at 0.01 µM [10]: 47 to 66% | GI50 [11]: 328 to 338 nM | TGI [11]: 14400 to 31100 nM | CC50 [11, 35]: > 100000 nM | growth at 0.1 µM [12]: 72 to 102% | growth at 0.1 µM [14]: 4 to 5% | GI50 [15]: 258 to 310 nM | CC50 [15]: 1800 to 3210 nM | TGI [15]: 574 to 888 nM | growth at 0.1 µM [16]: 67 to 80% | TGI [18]: 226 to 753 nM | CC50 [18, 35]: > 100000 nM | GI50 [19]: 21 to 204 nM | TGI ([19]; read-out: TGI): 294 nM | CC50 [19, 35]: > 100000 nM | TGI ([19]; read-out: pTGI (converted)): 295 nM | growth at 0.1 µM [20]: 66 to 77% | growth at 0.01 µM [21]: 86 to 95% | growth at 1 µM [22]: 32 to 43% | growth at 100 µM [33]: 2 to 5% | GI50 [25]: 148 to 193 nM | CC50 [25]: > 100000 nM | TGI ([25]; read-out: TGI): 893 to 1010 nM | growth at 0.1 µM [26]: 34 to 50% | growth at 0.01 µM [27]: 45 to 96% | growth at 0.1 µM [28]: 60 to 69% | growth at 0.1 µM [29]: 56 to 72%
